Source: US20110306597A1, “Nicotinamide Derivatives” (priority 2008, published 2011)

The compounds below were run against human recombinant H-PGDS (Homo sapiens, UniProt O60760) (assay: Fluorescence Intensity h-PGDS TBA Enzyme Assay). Conditions: 1:175,000 human recombinant H-PGDS, highest inhibitor concentration typically 1 μM.
Assay type: biochemical
Procedure, shortened: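 Recombinant human H-PGDS preincubated 10 min at room temperature with inhibitor in 100 mM Tris pH 8.0, 100 μM MgCl2, 2.5 mM glutathione, 0.5% DMSO; 5.0 μM PGH2 added, stopped after 42 s with FeCl2/citric acid. Remaining PGH2 measured as MDA–TBA fluorescence (ex 530/em 565 nm); IC50 by 4-parameter fit, 11 concentrations.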

Sequence of human recombinant H-PGDS (O60760 whole entry): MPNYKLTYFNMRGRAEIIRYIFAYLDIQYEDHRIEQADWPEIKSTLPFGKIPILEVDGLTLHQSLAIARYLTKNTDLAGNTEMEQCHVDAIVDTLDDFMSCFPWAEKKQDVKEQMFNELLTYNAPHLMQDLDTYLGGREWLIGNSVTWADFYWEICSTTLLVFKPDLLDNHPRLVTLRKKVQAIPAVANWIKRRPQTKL

SMILES	IC50
O=C(NCCCN1CCOCC1)c1ccc(-c2cccc(F)c2)nc1 [Example 39, 6-(3-Fluorophenyl)-N-(3-morpholin-4-ylpropyl)nicotinamide]	42.8 nM
COc1cccc(-c2ccc(C(=O)NCCN3CCOCC3)cn2)c1 [Example 332, 6-(3-Methoxyphenyl)-N-(2-morpholin-4-ylethyl)nicotinamide]	326 nM
O=C(NCC1CCCN(c2ccccn2)C1)c1ccc(-c2cc(F)cc(F)c2)nc1 (stereo not shown) [Example 570, 6-(3,5-Difluorophenyl)-N-[(1-pyridin-2-ylpiperidin-3-yl)methyl]nicotinamide]	32.5 nM
COC(=O)CC(NC(=O)c1ccc(-c2cccc(OC)c2)nc1)c1cccnc1 (stereo not shown) [Example 337, Methyl 3-({[6-(3-methoxyphenyl)pyridin-3-yl]carbonyl}amino)-3-pyridin-3-ylpropanoate]	396 nM
CCOC(=O)CC(NC(=O)c1ccc(-c2cccc(F)c2)nc1)c1ccc(Cl)cc1 (stereo not shown) [Example 407, Ethyl 3-(4-chlorophenyl)-3-({[6-(3-fluorophenyl)pyridin-3-yl]carbonyl}amino)propanoate]	149 nM
COc1cccc(-c2ccc(C(=O)NCCc3cccs3)cn2)c1 [Example 302, 6-(3-Methoxyphenyl)-N-[2-(2-thienyl)ethyl]nicotinamide]	177 nM
CC(Cn1cccn1)NC(=O)c1ccc(-c2cccc(F)c2)nc1 (stereo not shown) [Example 126, 6-(3-Fluorophenyl)-N-[1-methyl-2-(1H-pyrazol-1-yl)ethyl]nicotinamide]	33.8 nM
O=C(NCc1nc2ccccc2s1)c1cnc(-c2cccc(F)c2)c(Cl)c1 [Example 546, N-(1,3-Benzothiazol-2-ylmethyl)-5-chloro-6-(3-fluorophenyl)nicotinamide]	59.6 nM
COc1cccc(-c2ccc(C(=O)NCc3ccc(S(C)(=O)=O)cc3)cn2)c1 [Example 316, 6-(3-Methoxyphenyl)-N-[4-(methylsulfonyl)benzyl] nicotinamide]	382 nM
C[C@H](CNC(=O)c1ccc(-c2cccc(F)c2)nc1)NC(=O)OCc1ccccc1 [Example 437, Benzyl [(1R)-2-({[6-(3-fluorophenyl)pyridin-3-yl]carbonyl}amino)-1-methylethyl]carbamate]	54.3 nM
COc1ccc(OCC(O)CNC(=O)c2ccc(-c3cccc(F)c3)nc2)cc1 (stereo not shown) [Example 43, 6-(3-Fluorophenyl)-N-[2-hydroxy-3-(4-methoxyphenoxy)propyl] nicotinamide]	6.64 nM
Cc1cccc(-c2ccc(C(=O)NCCC3CCCCO3)cn2)c1 (stereo not shown) [Example 320, 6-(3-Methylphenyl)-N-[2-(tetrahydro-2H-pyran-2-yl)ethyl]nicotinamide]	17.4 nM
O=C(NC(CN1CCOCC1)c1ccccc1)c1ccc(-c2cccc(F)c2)nc1 (stereo not shown) [Example 210, 6-(3-Fluorophenyl)-N-(2-morpholin-4-yl-1-phenylethyl)nicotinamide]	39.2 nM
CC(C)c1cc(CNC(=O)c2ccc(-c3cccc(F)c3)nc2)on1 [Example 127, 6-(3-Fluorophenyl)-N-[(3-isopropylisoxazol-5-yl)methyl]nicotinamide]	30.3 nM
CCC(NC(=O)c1ccc(-c2cccc(F)c2)nc1)c1nn[nH]n1 (stereo not shown) [Example 60, 6-(3-Fluorophenyl)-N-[1-(2H-tetrazol-5-yl)propyl]nicotinamide]	38.9 nM

More lines, now with the values ahead:

IC50	SMILES
16.3 nM	CCC1CCN(CCNC(=O)c2ccc(-c3cccc(F)c3)nc2)CC1 [Example 188, N-[2-(4-Ethylpiperidin-1-yl)ethyl]-6-(3-fluorophenyl)nicotinamide]
39.7 nM	O=C(NCCN1CCCCC1=O)c1ccc(-c2ccccc2)nc1 [Example 373, N-[2-(2-Oxopiperidin-1-yl)ethyl]-6-phenylnicotinamide]
95 nM	Cc1cc(O)nc(CNC(=O)c2ccc(-c3cccc(F)c3)nc2)n1 [Example 115, 6-(3-Fluorophenyl)-N-[(4-hydroxy-6-methylpyrimidin-2-yl)methyl]nicotinamide]
6.88 nM	CC(=O)N1CCC(CNC(=O)c2ccc(-c3cccc(F)c3)nc2)CC1 [Example 178, N-[(1-Acetylpiperidin-4-yl)methyl]-6-(3-fluorophenyl)nicotinamide]
3.94 nM	O=C(Nc1cccnc1)c1ccc(-c2cccc(F)c2)nc1 [Example 419, 6-(3-Fluorophenyl)-N-pyridin-3-ylnicotinamide]
13.2 nM	COC(=O)CCCNC(=O)c1ccc(-c2cccc(F)c2)nc1 [Example 44, Methyl 4-({[6-(3-fluorophenyl)pyridin-3-yl]carbonyl}amino)butanoate]
92.9 nM	O=C(NC[C@@H]1CCCN2CCCC[C@H]12)c1ccc(-c2cccc(F)c2)nc1 [Example 73, 6-(3-Fluorophenyl)-N-[(1S,9aR)-octahydro-2H-quinolizin-1-ylmethyl]nicotinamide]
589 nM	O=C(NCC(c1ccccc1Cl)N1CCOCC1)c1ccc(-c2cccc(F)c2)nc1 (stereo not shown) [Example 445, N-[2-(2-Chlorophenyl)-2-morpholin-4-ylethyl]-6-(3-fluorophenyl)nicotinamide]
201 nM	COc1cccc(-c2ccc(C(=O)Nc3cccnc3)cn2)c1 [Example 485, 6-(3-Methoxyphenyl)-N-pyridin-3-ylnicotinamide]
21 nM	CC(C)CNC(=O)c1ccc(-c2ccccc2)nc1 [Example 378, N-Isobutyl-6-phenylnicotinamide]
175 nM	Cc1nnc(CNC(=O)c2ccc(-c3cccc(F)c3)nc2)o1 [Example 96, 6-(3-Fluorophenyl)-N-[(5-methyl-1,3,4-oxadiazol-2-yl)methyl]nicotinamide]
32.8 nM	O=C(NCc1nnc(Cc2ccccc2)o1)c1ccc(-c2cccc(F)c2)nc1 [Example 57, N-[(5-Benzyl-1,3,4-oxadiazol-2-yl)methyl]-6-(3-fluorophenyl)nicotinamide]
23.9 nM	Cc1c(C(C)NC(=O)c2ccc(-c3cccc(F)c3)nc2)cnn1C (stereo not shown) [Example 125, N-[1-(1,5-Dimethyl-1H-pyrazol-4-yl)ethyl]-6-(3-fluorophenyl)nicotinamide]
35.8 nM	Cc1noc(CC(NC(=O)c2ccc(-c3cccc(F)c3)nc2)c2ccccc2)n1 (stereo not shown) [Example 87, 6-(3-Fluorophenyl)-N-[2-(3-methyl-1,2,4-oxadiazol-5-yl)-1-phenylethyl]nicotinamide]
28.3 nM	CC(NC(=O)c1ccc(-c2cccc(F)c2)nc1)C1CC1 (stereo not shown) [Example 128, N-(1-Cyclopropylethyl)-6-(3-fluorophenyl)nicotinamide]
72.5 nM	COc1ccc(C(CNC(=O)c2ccc(-c3cccc(C)c3)nc2)N2CCOCC2)cc1 (stereo not shown) [Example 315, N-[2-(4-Methoxyphenyl)-2-morpholin-4-ylethyl]-6-(3-methylphenyl)nicotinamide]
895 nM	O=C(NCCN1CCCC1=O)c1ccc(-c2ccc(F)cc2)nc1 [Example 477, 6-(4-Fluorophenyl)-N-[2-(2-oxopyrrolidin-1-yl)ethyl]nicotinamide]
12.9 nM	Cc1cccc(-c2ccc(C(=O)NC3CCOCC3)cn2)c1 [Example 252, 6-(3-Methylphenyl)-N-(tetrahydro-2H-pyran-4-yl)nicotinamide]
61.8 nM	Cc1cnc(CN2CC(CNC(=O)c3ccc(-c4cccc(F)c4)nc3)OCC2=O)cn1 (stereo not shown) [Example 71, 6-(3-Fluorophenyl)-N-({4-[(5-methylpyrazin-2-yl)methyl]-5-oxomorpholin-2-yl}methyl)nicotinamide]
